The values that follow come from US20260146038A1, “NOVEL SALT OF DIMETHYL-2,3-DIHYDRO-1H-INDENE DERIVATIVE AND PROCESSES FOR PREPARING THE SAME” (YUHAN CORPORATION, priority 2022, published 2026).

What all share (format): physicochemical
Series [1] is described as follows: Water-solubility evaluation. The conditions noted are these: 20° C.
Series [2] in a line: Stability test (accelerated condition). To be noted: for Water contents: Karl Fischer; for Water contents / HPLC purity: accelerated condition (40±2° C., 75±5% RH). The source says:
The results obtained by measuring purities (the HPLC purities) and water contents (by Karl Fischer method) are shown in Table 1 below.

Series [3] in a line: Hygroscopicity evaluation by Dynamic Vapor Sorption (DVS).
Series [4] in a line: Photostability test according to ICH guideline Q1B. The conditions noted are these: for Water contents: Karl Fischer. On the procedure:
Photostability tests were carried out according to ICH guideline Q1B. […] The results obtained by measuring purities (the HPLC purities) and water contents (by Karl Fischer method) are shown in Table 2 below.

`CC(C)Oc1ccc(-c2ccc3c(c2)CC(C)(C)C3NC(=O)O[C@@H]2CN3CCC2CC3)cc1Cl` (stereo partly drawn) [Compound of WO 2021/096238, (S)-quinuclidin-3-yl (5-(3-chloro-4-isopropoxyphenyl)-2,2-dimethyl-2,3-dihydro-1H-inden-1-yl)carbamate, reference compound]: in series [1], the solubility (commonly the concentration that dissolves in the medium under given conditions) was less than 10 µg/mL. The “stability (form changes) in the accelerated condition” value in series [2] (amorphous free base) is “low stability”. In series [3] (amorphous free base), the “hygroscopicity (in words)” value is recorded as “high hygroscopicity”.

For “((1S,4R)-7,7-dimethyl-2-oxobicyclo[2.2.1]heptan-1-yl)methanesulfonic acid salt of (S)-quinuclidin-3-yl ((R)-5-(3-chloro-4-isopropoxyphenyl)-2,2-dimethyl-2,3-dihydro-1H-inden-1-yl)carbamate [Example 1]”, the “difference in the water contents under the accelerated condition” value in series [2] (40±2° C., 75±5% RH, up to 3 months) was no more than 1.0%. Also, the “stability by XRD and appearance under the accelerated condition” value in series [2] (40±2° C., 75±5% RH, FIGS. 5 and 6) is “excellent stability”. In addition, the Water contents in series [2] (1 month) is 0.32%; in series [2] (3 months) it was 1.28%; in series [2] (Initial), 0.48%; in series [4] (Initial) it was 0.48%; in series [4] (Light exposure (UV light for 10 hours / visible light for 40 hours)), 0.31%. Besides, the HPLC purity in series [2] (1 month), in series [2] (3 months), in series [2] (Initial), in series [4] (Initial) and in series [4] (Light exposure (UV light 20 W/m^2 for 10 hours / visible light 30,000 lux for 40 hours)) was 98.6% throughout. The Moisture adsorption in series [3] (weight change, room temperature (about 25° C.), RH 80%, 24 hours) was 2.3%.
